Values joined by “and” are separate entries in the source; they are usually repeats but may differ in a detail not shown here. Identical values can stand only once. Each block holds one compound with its values, some of them ahead of it.
Tested on: 362531-283-R-J2-PDC complex spheroid viability
Experiment: Anticancer human tumor 362531-283-R-J2-PDC patient-derived colon adenocarcinoma cell line growth inhibition [RAS]
Conditions: for viability, T/C: stronger effect = lower value
Method in brief: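 Agents were tested in combination matrices in half-log decrements from a top concentration at or near clinical Cmax (10 microM if undetermined). Targets were multi-cell spheroids of tumour lines plus HUVEC and MSC stromal cells.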

[1] = curve of first compound, second compound 0.0316 µM
[2] = curve of first compound, second compound 0.1 µM
[3] = curve of first compound, second compound 0.316 µM
[4] = curve of first compound, second compound 1 µM
[5] = second compound 0.0316 µM, first compound 0.0316 µM
[6] = second compound 0.0316 µM, first compound 0.1 µM
[7] = second compound 0.0316 µM, first compound 0.316 µM
[8] = second compound 0.0316 µM, first compound 1 µM
[9] = second compound 0.0316 µM, first compound 3.16 µM
[10] = second compound 0.0316 µM, first compound 10 µM
[11] = second compound 0.1 µM, first compound 0.0316 µM
[12] = second compound 0.1 µM, first compound 0.1 µM
[13] = second compound 0.1 µM, first compound 0.316 µM
[14] = second compound 0.1 µM, first compound 1 µM
[15] = second compound 0.1 µM, first compound 3.16 µM
[16] = second compound 0.1 µM, first compound 10 µM
[17] = second compound 0.316 µM, first compound 0.0316 µM
[18] = second compound 0.316 µM, first compound 0.1 µM
[19] = second compound 0.316 µM, first compound 0.316 µM
[20] = second compound 0.316 µM, first compound 1 µM
[21] = second compound 0.316 µM, first compound 3.16 µM
[22] = second compound 0.316 µM, first compound 10 µM
[23] = second compound 1 µM, first compound 0.0316 µM
[24] = second compound 1 µM, first compound 0.1 µM
[25] = second compound 1 µM, first compound 0.316 µM
[26] = second compound 1 µM, first compound 1 µM
[27] = second compound 1 µM, first compound 3.16 µM
[28] = second compound 1 µM, first compound 10 µM
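Also: spheroids exposed to the agents for 7 days before readout.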
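For viability, T/C in this document: luminescence viability as percent of DMSO vehicle control wells.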

Structure (SMILES): CC(Nc1ccc2c(c1)OCCn1cc(N3C(=O)OCC3C(F)F)nc1-2)C(N)=O (stereo not given) + C#Cc1c(F)ccc2cc(O)cc(-c3ncc4c(N5CC6CCC(C5)N6)nc(OCC56CCCN5CC(F)C6)nc4c3F)c12
IC50 [1]: 1.29 µM
IC50 [2]: 0.963 µM
IC50 [3]: 0.847 µM
IC50 [4]: 0.421 µM
IC50 (curve of first compound, second compound 3.16 µM): 0.119 µM
IC50 (curve of first compound, second compound 10 µM): 0.0429 µM
viability, T/C [5]: 90.7%
viability, T/C [6]: 88.4%
viability, T/C [7]: 79%
viability, T/C [8]: 55%
viability, T/C [9]: 33.7%
viability, T/C [10]: 31%
viability, T/C [11]: 95%
viability, T/C [12]: 77%
viability, T/C [13]: 69.9%
viability, T/C [14]: 48.6%
viability, T/C [15]: 34.5%
viability, T/C [16]: 28.8%
viability, T/C [17]: 103%
viability, T/C [18]: 81.5%
viability, T/C [19]: 63.7%
viability, T/C [20]: 50.9%
viability, T/C [21]: 29.7%
viability, T/C [22]: 13.8%
viability, T/C [23]: 80.5%
viability, T/C [24]: 59.4%
viability, T/C [25]: 62.9%
viability, T/C [26]: 34.2%
viability, T/C [27]: 25.6%
viability, T/C [28]: 18%
viability, T/C (second compound 3.16 µM, first compound 0.0316 µM): 62%
viability, T/C (second compound 3.16 µM, first compound 0.1 µM): 51.9%
viability, T/C (second compound 3.16 µM, first compound 0.316 µM): 31.4%
viability, T/C (second compound 3.16 µM, first compound 1 µM): 7.66%
viability, T/C (second compound 3.16 µM, first compound 3.16 µM): 7.58%
viability, T/C (second compound 3.16 µM, first compound 10 µM): 4.5%
viability, T/C (second compound 10 µM, first compound 0.0316 µM): 56.1%
viability, T/C (second compound 10 µM, first compound 0.1 µM): 33%
viability, T/C (second compound 10 µM, first compound 0.316 µM): 6.59%
viability, T/C (second compound 10 µM, first compound 1 µM): 4.96%
viability, T/C (second compound 10 µM, first compound 3.16 µM): 3.74%
viability, T/C (second compound 10 µM, first compound 10 µM): 2.42%

Structure (SMILES): CC(=O)OC12COC1CC(O)C1(C)C(=O)C(O)C3=C(C)C(OC(=O)C(O)C(NC(=O)OC(C)(C)C)c4ccccc4)CC(O)(C(OC(=O)c4ccccc4)C21)C3(C)C (stereo not given) + C=CC(=O)N1CCN(c2nc(OCC3CCCN3C)nc3c(F)c(-c4nc(N)cc(C)c4C(F)(F)F)c(Cl)cc23)C(C)C1
IC50 (curve of first compound, second compound 0.00316 µM): 0.206 µM
IC50 (curve of first compound, second compound 0.01 µM): 0.207 µM
IC50 [1]: 0.212 µM
IC50 [2]: 0.211 µM
IC50 [3]: 0.194 µM
IC50 [4]: 0.219 µM
viability, T/C (second compound 0.00316 µM, first compound 0.0316 µM): 96.7%
viability, T/C (second compound 0.00316 µM, first compound 0.1 µM): 87.7%
viability, T/C (second compound 0.00316 µM, first compound 0.316 µM): 24.6%
viability, T/C (second compound 0.00316 µM, first compound 1 µM): 20.6%
viability, T/C (second compound 0.00316 µM, first compound 3.16 µM): 25.6%
viability, T/C (second compound 0.00316 µM, first compound 10 µM): 39.1%
viability, T/C (second compound 0.01 µM, first compound 0.0316 µM): 106%
viability, T/C (second compound 0.01 µM, first compound 0.1 µM): 87.8%
viability, T/C (second compound 0.01 µM, first compound 0.316 µM): 24.2%
viability, T/C (second compound 0.01 µM, first compound 1 µM): 22.8%
viability, T/C (second compound 0.01 µM, first compound 3.16 µM): 25.5%
viability, T/C (second compound 0.01 µM, first compound 10 µM): 39.8%
viability, T/C [5]: 99.4%
viability, T/C [6]: 94.3%
viability, T/C [7]: 21.5%
viability, T/C [8]: 22.2%
viability, T/C [9]: 25.2%
viability, T/C [10]: 37.3%
viability, T/C [11]: 97.4%
viability, T/C [12]: 89.1%
viability, T/C [13]: 27%
viability, T/C [14]: 20.1%
viability, T/C [15]: 27.3%
viability, T/C [16]: 40.2%
viability, T/C [17]: 107%
viability, T/C [18]: 76.4%
viability, T/C [19]: 25.3%
viability, T/C [20]: 18%
viability, T/C [21]: 34.6%
viability, T/C [22]: 44.1%
viability, T/C [23]: 106%
viability, T/C [24]: 86.4%
viability, T/C [25]: 27.3%
viability, T/C [26]: 23.4%
viability, T/C [27]: 35.1%
viability, T/C [28]: 45.5%

Structure (SMILES): C=CC(=O)Nc1cc(Nc2nccc(-c3cn(C)c4ccccc34)n2)c(OC)cc1N(C)CCN(C)C
viability, T/C (compound 0.00316 µM): 98.8% [middle of 4 runs]
viability, T/C (compound 0.01 µM): 92.5% [middle of 4 runs]
viability, T/C (compound 0.0316 µM): 101% [middle of 4 runs]
viability, T/C (compound 0.1 µM): 101% [middle of 4 runs]
viability, T/C (compound 0.316 µM): 96.5% [middle of 4 runs]
viability, T/C (compound 1 µM): 85.1% [middle of 4 runs]
IC50 (curve of compound): > 1 µM

Continued, in another order:

IC50 (curve of first compound, second compound 0.000949 µM): > 1 µM
IC50 (curve of first compound, second compound 0.003 µM): 0.719 µM
IC50 (curve of first compound, second compound 0.00949 µM): 0.876 µM
IC50 (curve of first compound, second compound 0.03 µM): > 1 µM
IC50 (curve of first compound, second compound 0.0949 µM): > 1 µM
IC50 (curve of first compound, second compound 0.3 µM): 0.437 µM
Structure (SMILES): CCN1CCN(Cc2ccc(Nc3ncc(F)c(-c4cc(F)c5nc(C)n(C(C)C)c5c4)n3)nc2)CC1 + CCn1c(-c2cccnc2C(C)OC)c2c3cc(ccc31)N1CCOC(CC(NC(=O)C(C(C)C)N(C)C(=O)C3(F)CCN(C(=O)C#CC(C)(C)N(C)C)CC3)C(=O)N3CCCC(N3)C(=O)OCC(C)(C)C2)C1
viability, T/C (second compound 0.000949 µM, first compound 0.00316 µM): 96%
viability, T/C (second compound 0.000949 µM, first compound 0.01 µM): 92%
viability, T/C (second compound 0.000949 µM, first compound 0.0316 µM): 67.3%
viability, T/C (second compound 0.000949 µM, first compound 0.1 µM): 83.8%
viability, T/C (second compound 0.000949 µM, first compound 0.316 µM): 66.4%
viability, T/C (second compound 0.000949 µM, first compound 1 µM): 46.7%
viability, T/C (second compound 0.003 µM, first compound 0.00316 µM): 108%
viability, T/C (second compound 0.003 µM, first compound 0.01 µM): 98.5%
viability, T/C (second compound 0.003 µM, first compound 0.0316 µM): 65.6%
viability, T/C (second compound 0.003 µM, first compound 0.1 µM): 73%
viability, T/C (second compound 0.003 µM, first compound 0.316 µM): 66.6%
viability, T/C (second compound 0.003 µM, first compound 1 µM): 40.9%
viability, T/C (second compound 0.00949 µM, first compound 0.00316 µM): 105%
viability, T/C (second compound 0.00949 µM, first compound 0.01 µM): 105%
viability, T/C (second compound 0.00949 µM, first compound 0.0316 µM): 55.3%
viability, T/C (second compound 0.00949 µM, first compound 0.1 µM): 74.4%
viability, T/C (second compound 0.00949 µM, first compound 0.316 µM): 59.8%
viability, T/C (second compound 0.00949 µM, first compound 1 µM): 45.7%
viability, T/C (second compound 0.03 µM, first compound 0.00316 µM): 112%
viability, T/C (second compound 0.03 µM, first compound 0.01 µM): 94.2%
viability, T/C (second compound 0.03 µM, first compound 0.0316 µM): 57.5%
viability, T/C (second compound 0.03 µM, first compound 0.1 µM): 65.8%
viability, T/C (second compound 0.03 µM, first compound 0.316 µM): 66.1%
viability, T/C (second compound 0.03 µM, first compound 1 µM): 43.4%
viability, T/C (second compound 0.0949 µM, first compound 0.00316 µM): 103%
viability, T/C (second compound 0.0949 µM, first compound 0.01 µM): 88.3%
viability, T/C (second compound 0.0949 µM, first compound 0.0316 µM): 53.4%
viability, T/C (second compound 0.0949 µM, first compound 0.1 µM): 69%
viability, T/C (second compound 0.0949 µM, first compound 0.316 µM): 65%
viability, T/C (second compound 0.0949 µM, first compound 1 µM): 46.6%
viability, T/C (second compound 0.3 µM, first compound 0.00316 µM): 100%
viability, T/C (second compound 0.3 µM, first compound 0.01 µM): 82.5%
viability, T/C (second compound 0.3 µM, first compound 0.0316 µM): 56.4%
viability, T/C (second compound 0.3 µM, first compound 0.1 µM): 64.9%
viability, T/C (second compound 0.3 µM, first compound 0.316 µM): 57.2%
viability, T/C (second compound 0.3 µM, first compound 1 µM): 40.9%

IC50 (curve of compound): > 10 µM and 6.07 µM and 8.41 µM
Structure (SMILES): NC1c2ccccc2OC12CCN(c1cnc3c(N4CCCc5ncccc54)n[nH]c3n1)CC2 (stereo not given)
viability, T/C (compound 0.0316 µM): 95.1% [middle of 4 runs]
viability, T/C (compound 0.1 µM): 90% [middle of 4 runs]
viability, T/C (compound 0.316 µM): 85.3% [middle of 4 runs]
viability, T/C (compound 1 µM): 76.1% [middle of 4 runs]
viability, T/C (compound 3.16 µM): 68.5% [middle of 4 runs]
viability, T/C (compound 10 µM): 49.4% [middle of 4 runs]
